This is an account of results in patent EP4813463A2, “TYK2 INHIBITORS AND COMPOSITIONS AND METHODS THEREOF” (Lynk Pharmaceuticals Co. Ltd., priority 2023, dated 2024).

Converted amounts (≈) assume the structure as drawn. Like-named read-outs stand apart in the source and are kept apart here.

One series concerns the target T1, TYK2-JH2 domain (Homo sapiens, UniProt P29597).
T1 construct: JAK1-JH2 domain or TYK2-JH2 domain enzyme in assay buffer
The series can be described thus: Binding activity test for JH2 domain of TYK2 (Tb-antibody/tracer FRET). The method in brief: (§1)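 IC50 values (nM) come from TR-FRET readings taken after a 25°C incubation followed by overnight at 4°C. Each well held JH2 domain protein, Tb-antibody, tracer and test compound titrated in 11 threefold steps, with DMSO high and low controls.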

Series [1] has as its system Ba/F3-FL-TYK2-P760L cells. Kind of series: Anti-proliferative assay in engineered Ba/F3 cells (Cell-Titer Glo, 72 h). It is filed as cell-based. The conditions noted are these: Mus musculus, concentration that causes 50% growth inhibition, read-out: Baf3-FL-T2P760L. The method in brief: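 IC50 from luminescent ATP viability after 72 h compound exposure (37 °C, 5% CO2), % inhibition normalised to DMSO-treated cells minus medium blank. IL-3-free Ba/F3-FL-TYK2-P760L (Tel-JAK fusion) cells in 10% FBS RPMI-1640 received 9 three-fold doses, top 20 µM, 0.1% DMSO.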

For the next series, the system named is IFNa pSTAT1. Kind of series: Phosphorylation of STAT1 inhibition in HMC3 cells by Jess. Type of series: cell-based. The note with it: Homo sapiens; HMC3 microglia cells, 50ng/mL hINFα 1 hour, Jess western; read-out: Jess_HMC3 IC50 (IFNa pSTAT1). As for the experimental part:
Seeding HMC3 cells into 12-well plate and incubate overnight. Pre-stimulation with recombinant human IFNα (Sino biological, H08Y), treat cells with compound with different concentration for 1hr. After compound treatment, stimulate HMC3 cells with 50ng/mL hINFα for another 1 hour (for CCF-STTG1 cells IFNα induction time is 30 mins). And then wash cells with DPBS once gently and lyse cells with pre-cooled RIPA buffer (Sigma, R0278-500ML) for 30min on ice to harvest cells. Centrifuge cell lysate for 20 mins at 12000rpm with freezer centrifuge (Thermo Scientific, Heraeus Fresco 21) to extract protein. Prepare samples with Jess Simple Wes kit (SM-WO04) and then run western blot on Jess simple western system (Protein simple, JS-4631). Collect data and analyzed with GraphPad Prism.

The next series concerns the target T2, JAK1-JH2 domain (Homo sapiens, UniProt P23458).
T2 construct: JAK1-JH2 domain or TYK2-JH2 domain enzyme in assay buffer
Kind of series: Binding activity test for JH2 domain of JAK1 (Tb-antibody/tracer FRET). The method, boiled down: as §1

A further series is described as follows: Kinetic solubility. Type of series: physicochemical. The note with it: kinetic from dmso stock, 100 mM pH 7.4 phosphate buffer, 1% DMSO, room temperature, read-out: Kinetics Solubility_PBS7.4. The method in brief: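 Compounds diluted from 10 mM/5 mM DMSO stocks into 100 mM phosphate buffer pH 7.4 (1% DMSO final), shaken 2 h at room temperature, then centrifuged. Dissolved compound in supernatant quantified by LC-MS/MS against a standard curve.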

Where [2] appears, read: ratio of JAK1 JH2 to TYK2 JH2 binding IC50.
Setting [3] is: JH2 domain enzyme; 60 min at 25°C, then 4°C overnight; read-out: TYK2 JH2 Binding IC50.
[4] abbreviates: BaF3, 72 h, 72 h compound treatment.
[5] abbreviates: JH2 domain enzyme; 60 min at 25°C, then 4°C overnight; read-out: JAK1 JH2 Binding IC50.
The mark [6] stands for this setting: phosphate buffer, pH 7.4, aqueous buffer.

T1 sequence (P29597 589-875 limits assumed): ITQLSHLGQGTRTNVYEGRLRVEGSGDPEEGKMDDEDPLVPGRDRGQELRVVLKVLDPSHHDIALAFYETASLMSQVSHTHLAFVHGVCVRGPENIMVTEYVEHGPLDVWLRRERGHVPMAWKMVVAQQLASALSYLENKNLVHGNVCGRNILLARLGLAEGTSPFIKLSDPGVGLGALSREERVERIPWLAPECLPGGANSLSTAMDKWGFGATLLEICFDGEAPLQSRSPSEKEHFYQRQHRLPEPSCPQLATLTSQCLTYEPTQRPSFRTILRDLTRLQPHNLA
T2 sequence (P23458 583-855 limits assumed): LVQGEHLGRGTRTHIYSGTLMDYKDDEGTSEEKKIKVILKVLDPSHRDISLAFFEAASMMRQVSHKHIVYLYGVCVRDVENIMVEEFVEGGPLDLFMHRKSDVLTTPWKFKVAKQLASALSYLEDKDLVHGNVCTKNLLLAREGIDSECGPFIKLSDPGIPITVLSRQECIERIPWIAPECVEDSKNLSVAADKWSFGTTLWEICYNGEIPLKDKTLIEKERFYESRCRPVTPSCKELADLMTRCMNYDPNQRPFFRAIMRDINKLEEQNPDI

For `COC(=O)c1cnc(NC(=O)[C@@H]2C[C@@H]2F)cc1Nc1nn(C)c2ccc(C(O)C(F)(F)F)c(OC)c12` (single isomer, unassigned) [Example 122A, Methyl 6-((1S,2S)-2-fluorocyclopropane-1-carboxamido)-4-((4-methoxy-1-methyl-5-((S*)-2,2,2-trifluoro-1-hydroxyethyl)-1H-indazol-3-yl)amino) nicotinate], the JAK1/TYK2 selectivity on TYK2-JH2 domain (setting [2]) turned out to be 216.29. For the same compound, the IC50 was 0.072 nM on TYK2-JH2 domain (read-out: TYK2 JH2 Binding IC50; JH2 domain enzyme; 60 min at 25°C, then 4°C overnight); 0.8 nM in series [1] (BaF3, 72 h compound treatment); 0.239 nM in the series on IFNa pSTAT1; 15.6 nM on JAK1-JH2 domain (read-out: JAK1 JH2 Binding IC50; JH2 domain enzyme; 60 min at 25°C, then 4°C overnight). For the same compound, the solubility kinetic at 2 h in “Kinetic solubility” (aqueous buffer) is 10.3 µM (≈ 5.27 µg/mL).
Consider `[2H]C([2H])([2H])NC(=O)c1cnc(NC(=O)C2CC2)cc1Nc1cnn2ccc([C@H](O)C(F)(F)F)c(OC)c12` [Example 7A, (S)-6-(cyclopropanecarboxamido)-4-((4-methoxy-5-(2,2,2-trifluoro-1-hydroxyethyl)pyrazolo[1,5-a]pyridin-3-yl)amino)-N-(methyl-d3)nicotinamide], for which the IC50 at TYK2-JH2 domain (setting [3]) was determined as 0.097 nM; in series [1] (setting [4]), 5.4 nM; in the series on IFNa pSTAT1 it was 1.04 nM; on JAK1-JH2 domain (setting [5]) it was 10.4 nM. In addition, the JAK1/TYK2 selectivity at TYK2-JH2 domain (setting [2]) is recorded as 107.6. The solubility kinetic at 2 h in “Kinetic solubility” (setting [6]) amounted to 52.1 µM (≈ 25.1 µg/mL).
Consider `[2H]C([2H])([2H])NC(=O)c1cnc(NC(=O)C2CC2)cc1Nc1cnn2ccc([C@@H](O)C(F)(F)F)c(OC)c12` [Example 7B, (R)-6-(cyclopropanecarboxamido)-4-((4-methoxy-5-(2,2,2-trifluoro-1-hydroxyethyl)pyrazolo[1,5-a]pyridin-3-yl)amino)-N-(methyl-d3)nicotinamide], for which the IC50 amounted to 0.528 nM on TYK2-JH2 domain (setting [3]), 223 nM in series [1] (setting [4]) and 12.9 nM at JAK1-JH2 domain (setting [5]). Further, the JAK1/TYK2 selectivity on TYK2-JH2 domain (setting [2]) turned out to be 24.4. Also, the solubility kinetic at 2 h in “Kinetic solubility” (setting [6]) stood at 55.8 µM (≈ 26.9 µg/mL).
In the case of `[2H]C([2H])([2H])NC(=O)c1cnc(Nc2ccn(C)n2)cc1Nc1cnn2ccc([C@H](O)C(F)(F)F)c(OC)c12` [Example 21, (S)-4-((4-methoxy-5-(2,2,2-trifluoro-1-hydroxyethyl)pyrazolo[1,5-a]pyridin-3-yl)amino)-N-(methyl-d3)-6-((1-methyl-1H-pyrazol-3-yl)amino)nicotinamide], the IC50 on TYK2-JH2 domain (setting [3]) was 0.077 nM; in series [1] (setting [4]) it was 15.7 nM; on JAK1-JH2 domain (setting [5]), 11 nM. For the same compound, on TYK2-JH2 domain (setting [2]), the JAK1/TYK2 selectivity stood at 142.7. For the same compound, the solubility kinetic at 2 h in “Kinetic solubility” (setting [6]) was 57.2 µM (≈ 28.2 µg/mL).
On to `[2H]C([2H])([2H])NC(=O)c1cnc(Nc2cc(C)nc(C)n2)cc1Nc1cnn2ccc([C@H](O)C(F)(F)F)c(OC)c12` [Example 25, (S)-6-((2,6-Dimethylpyrimidin-4-yl)amino)-4-((4-methoxy-5-(2,2,2-trifluoro-1-hydroxyethyl)pyrazolo[1,5-a]pyridin-3-yl)amino)-N-(methyl-d3)nicotinamide], for which the IC50 at TYK2-JH2 domain (setting [3]) was found to be 0.068 nM; in series [1] (setting [4]), 5.01 nM; on JAK1-JH2 domain (setting [5]), 11.5 nM. In addition, the JAK1/TYK2 selectivity at TYK2-JH2 domain (setting [2]) was 169.1. In addition, the solubility kinetic at 2 h in “Kinetic solubility” (setting [6]) worked out at 43 µM (≈ 22.3 µg/mL).
For `[2H]C([2H])([2H])NC(=O)c1cnc(NC(=O)C2CC2)cc1Nc1cnn2ccc([C@H](OC)C(F)(F)F)c(OC)c12` [Example 27, (S)-6-(cyclopropanecarboxamido)-4-((4-methoxy-5-(2,2,2-trifluoro-1-methoxyethyl)pyrazolo[1,5-a]pyridin-3-yl)amino)-N-(methyl-d3)nicotinamide], the figures for the IC50 (on TYK2-JH2 domain (setting [3]); in series [1] (setting [4]); at JAK1-JH2 domain (setting [5])) were 0.064 nM, 8.54 nM and 8.19 nM, respectively. The JAK1/TYK2 selectivity on TYK2-JH2 domain (setting [2]) was determined as 128.0. Further, in “Kinetic solubility” (setting [6]), the solubility kinetic at 2 h came to 14.2 µM (≈ 7.06 µg/mL).
On the same counts, the results for `[2H]C([2H])([2H])NC(=O)c1nnc(NC(=O)C2CC2)cc1Nc1cnn2ccc([C@H](O)C(F)(F)F)c(OC)c12` [Example 30, (S)-6-(cyclopropanecarboxamido)-4-((4-methoxy-5-(2,2,2-trifluoro-1-hydroxyethyl)pyrazolo[1,5-a]pyridin-3-yl)amino)-N-(methyl-d3)pyridazine-3-carboxamide] are 0.088 nM, 7.96 nM, 10.9 nM, 124.4 and 42 µM (≈ 20.2 µg/mL).
For `COC(=O)c1cnc(NC(=O)C2CC2)cc1Nc1nn(C)c2ccc([C@H](OC)C(F)(F)F)c(OC)c12` [Example 45B, Methyl (S)-6-(cyclopropanecarboxamido)-4-((4-methoxy-1-methyl-5-(2,2,2-trifluoro-1-methoxyethyl)-1H-indazol-3-yl)amino)nicotinate], the IC50 at TYK2-JH2 domain (setting [3]) is 0.124 nM; in series [1] (setting [4]), 2.53 nM; with IFNa pSTAT1, 4.8 nM; on JAK1-JH2 domain (setting [5]), 24.5 nM. In addition, the JAK1/TYK2 selectivity at TYK2-JH2 domain (setting [2]) worked out at 197.30. Besides, the solubility kinetic at 2 h in the series “Kinetic solubility” (setting [6]) was 9.37 µM (≈ 4.75 µg/mL).
Regarding `COC(=O)c1cnc(NC(=O)C2CC2)cc1Nc1nn(C)c2ccc([C@H](O)C(F)(F)F)c(OC)c12` [Example 48A, Methyl (S)-6-(cyclopropanecarboxamido)-4-((4-methoxy-1-methyl-5-(2,2,2-trifluoro-1-hydroxyethyl)-1H-indazol-3-yl)amino)nicotinate], the IC50 at TYK2-JH2 domain (setting [3]) came out at 0.145 nM; in series [1] (setting [4]), 1.5 nM; in the series on IFNa pSTAT1, 1.03 nM; at JAK1-JH2 domain (setting [5]) it was 23 nM. The JAK1/TYK2 selectivity at TYK2-JH2 domain (setting [2]) worked out at 158.89. Besides, the solubility kinetic at 2 h in the series “Kinetic solubility” (setting [6]) amounted to 6.98 µM (≈ 3.44 µg/mL).
With `[2H]C([2H])([2H])NC(=O)c1cnc(NC(=O)C2CC2)cc1Nc1nn(C)c2ccc([C@H](O)C(F)(F)F)c(OC)c12` [Example 49A, (S)-6-(cyclopropanecarboxamido)-4-((4-methoxy-1-methyl-5-(2,2,2-trifluoro-1-hydroxyethyl)-1H-indazol-3-yl)amino)-N-(methyl-d3)nicotinamide], the IC50 on TYK2-JH2 domain (setting [3]) is 0.107 nM; in series [1] (setting [4]) it was 0.464 nM; in the series with IFNa pSTAT1, 0.084 nM; at JAK1-JH2 domain (setting [5]), 5.28 nM. Besides, the JAK1/TYK2 selectivity at TYK2-JH2 domain (setting [2]) is 49.3. In addition, in “Kinetic solubility” (setting [6]), the solubility kinetic at 2 h turned out to be 45.5 µM (≈ 22.5 µg/mL).
In the case of `[2H]C([2H])([2H])O[C@@H](c1ccc2c(c(Nc3cc(NC(=O)C4CC4)ncc3C(=O)OC)nn2C)c1OC)C(F)(F)F` [Example 50B, Methyl (S)-6-(cyclopropanecarboxamido)-4-((4-methoxy-1-methyl-5-(2,2,2-trifluoro-1-(methoxy-d3)ethyl)-1H-indazol-3-yl)amino)nicotinate], the IC50 at TYK2-JH2 domain (setting [3]) amounted to 0.177 nM; in series [1] (setting [4]) it was 2.85 nM; with IFNa pSTAT1 it was 9.3 nM; on JAK1-JH2 domain (setting [5]), 28.8 nM. In addition, the JAK1/TYK2 selectivity at TYK2-JH2 domain (setting [2]) came to 162.94. Besides, the solubility kinetic at 2 h in the series “Kinetic solubility” (setting [6]) was determined as 7.23 µM (≈ 3.69 µg/mL).
Take `[2H]C([2H])([2H])NC(=O)c1cnc(NC(=O)C2CC2)cc1Nc1nn(C)c2ccc([C@H](OC([2H])([2H])[2H])C(F)(F)F)c(OC)c12` [Example 55A, (S)-6-(cyclopropanecarboxamido)-4-((4-methoxy-1-methyl-5-(2,2,2-trifluoro-1-(methoxy-d3)ethyl)-1H-indazol-3-yl)amino)-N-(methyl-d3)nicotinamide]: the figures for the IC50 (at TYK2-JH2 domain (setting [3]); in series [1] (setting [4]); at JAK1-JH2 domain (setting [5])) were 0.052 nM, 0.352 nM and 2.54 nM, respectively. For the same compound, the JAK1/TYK2 selectivity on TYK2-JH2 domain (setting [2]) stood at 48.9. The solubility kinetic at 2 h in “Kinetic solubility” (setting [6]) was 7.78 µM (≈ 3.99 µg/mL).
